Laboratory results reported in BindingDB's records for patent US20250129027 (Apogee Pharmaceuticals, 2025).

Tests used:
Monoglyceride lipase = biological target: T1, Monoglyceride lipase (Homo sapiens, UniProt Q99685); experiment: In Vitro Inhibition on FAAH and MAGL Activity Assay
T1 sequence (Q99685 whole entry): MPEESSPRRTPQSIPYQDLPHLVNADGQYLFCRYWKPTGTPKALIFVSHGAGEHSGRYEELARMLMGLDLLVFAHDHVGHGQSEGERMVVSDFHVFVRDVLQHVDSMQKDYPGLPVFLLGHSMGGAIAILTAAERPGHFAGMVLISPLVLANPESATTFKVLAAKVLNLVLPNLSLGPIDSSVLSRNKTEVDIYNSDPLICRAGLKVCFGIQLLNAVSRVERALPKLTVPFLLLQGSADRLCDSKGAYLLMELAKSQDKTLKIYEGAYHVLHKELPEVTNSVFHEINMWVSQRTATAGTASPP
Excerpt: (§1) In brief, FAAH hydrolyzes AMC arachidonoyl amide resulting in the release of the fluorescent product, while the inhibitor will inhibit the FAAH activity and thus reduce the fluorescent signal. […] The absorbance of the yellow product can be analyzed using the plate reader.

[1] = biological target: T2, Fatty-acid amide hydrolase 1 (Homo sapiens, UniProt O00519); experiment: as above
T2 sequence (O00519 whole entry): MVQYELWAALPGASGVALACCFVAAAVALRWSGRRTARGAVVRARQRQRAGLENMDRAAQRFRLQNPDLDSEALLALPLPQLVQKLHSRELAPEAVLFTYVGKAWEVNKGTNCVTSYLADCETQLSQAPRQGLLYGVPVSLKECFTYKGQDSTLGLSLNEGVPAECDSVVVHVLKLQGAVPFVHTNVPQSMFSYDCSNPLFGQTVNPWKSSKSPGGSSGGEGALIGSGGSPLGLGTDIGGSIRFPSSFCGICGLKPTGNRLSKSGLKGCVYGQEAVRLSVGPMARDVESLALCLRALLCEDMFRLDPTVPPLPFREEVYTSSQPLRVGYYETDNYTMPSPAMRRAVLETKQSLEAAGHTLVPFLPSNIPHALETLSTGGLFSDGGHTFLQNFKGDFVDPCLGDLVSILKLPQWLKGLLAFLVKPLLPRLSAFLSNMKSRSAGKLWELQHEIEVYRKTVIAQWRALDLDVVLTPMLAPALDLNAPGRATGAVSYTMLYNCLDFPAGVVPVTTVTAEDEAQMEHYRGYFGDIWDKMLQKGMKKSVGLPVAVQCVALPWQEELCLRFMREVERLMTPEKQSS
Excerpt: as §1

| SMILES | IC50 (Monoglyceride lipase) [µM] | IC50 [1] [µM] |
| --- | --- | --- |
| CCCCCCCNC(=O)Oc1ccc(O)c(-c2cncc(-c3nnco3)c2)c1 [US20250129027, Example 156] | > 20 | – |
| CCCCCNC(=O)Oc1cccc(-c2cncc(C(=O)OCC)c2)c1 [US20250129027, Example 1] | > 10 | – |
| CCCCCCCCNC(=O)Oc1ccc(OC(F)(F)F)c(-c2cncc(-c3ncco3)c2)c1 [US20250129027, Example 88] | 10 | – |
| CCCCCCCCCCCCCCNC(=O)Oc1cccc(-c2cncc(C(=O)NO)c2)c1 [US20250129027, Example 24] | > 10 | < 0.01 |
| CCCCCCCCNC(=O)Oc1cccc(-c2cncc(-c3nnco3)c2)c1 [US20250129027, Example 130] | > 10 | – |
| CCCCCCNC(=O)Oc1cccc(-c2cncc(-c3nnco3)c2)c1 [US20250129027, Example 128] | > 50 | – |
| CCCCCCCCNC(=O)Oc1ccc(OC)c(-c2cncc(-c3ccc[nH]3)c2)c1 [US20250129027, Example 41] | > 10 | – |
| CCCCCCCCNC(=O)Oc1cccc(-c2cncc(C(=O)OC)c2)c1 [US20250129027, Example 10] | > 1 | – |
| CCCCCCCCNC(=O)Oc1cccc(-c2cncc(C(F)(F)F)c2)c1 [US20250129027, Example 30] | > 10 | – |
| CCCCCCCCNC(=O)Oc1ccc(OC)c(-c2cncc(-c3nnco3)c2)c1 [US20250129027, Example 167] | > 10 | – |
| CCCCCCCNC(=O)Oc1cccc(-c2cncc(C(=O)OC)c2)c1 [US20250129027, Example 9] | > 10 | – |
| CCCCCCCCNC(=O)Oc1cccc(-c2cncc(C(=O)OCC)c2)c1 [US20250129027, Example 3] | > 10 | – |
| O=Cc1cncc(-c2cccc(OC(=O)NC3CCCCC3)c2)c1 [US20250129027, Example 19] | > 10 | 1 |
| CN(C(=O)Oc1cccc(-c2cncc(-c3nnco3)c2)c1)C1CCCCCC1 [US20250129027, Example 144] | > 10 | > 1 |
| COc1ccc(OC(=O)NC2CCCCC2)cc1-c1cncc(-c2nncs2)c1 [US20250129027, Example 217] | > 10 | – |
| CCCCCCCCNC(=O)Oc1ccc(O)c(-c2cncc(-c3nnco3)c2)c1 [US20250129027, Example 157] | > 10 | – |
| CCCCCCCNC(=O)Oc1cccc(-c2cncc(C#N)c2)c1 [US20250129027, Example 26] | > 10 | – |
| CCCCCCCCCCCCCCNC(=O)Oc1cccc(-c2cncc(-c3nnco3)c2)c1 [US20250129027, Example 132] | < 10 | < 0.02 |
| CCCCCCCCCCCCNC(=O)Oc1cccc(-c2cncc(-c3nnco3)c2)c1 [US20250129027, Example 131] | < 10 | – |
| CCCCCNC(=O)Oc1cccc(-c2cncc(C(=O)OC)c2)c1 [US20250129027, Example 8] | > 10 | – |
| CN(C)c1ccc(OC(=O)NC2CCCC2)cc1-c1cncc(-c2nnco2)c1 [US20250129027, Example 183] | > 10 | > 1 |
| CCCCCCCCNC(=O)Oc1cccc(-c2cncc(-c3ccco3)c2)c1 [US20250129027, Example 47] | 10 | – |
| CCCCCCCCNC(=O)Oc1cccc(-c2cncc(C#N)c2)c1 [US20250129027, Example 27] | > 10 | – |
| CCCCCCCCNC(=O)Oc1ccc(OC)c(-c2cncc(-c3cccs3)c2)c1 [US20250129027, Example 65] | 10 | – |
| CCCCCCCNC(=O)Oc1ccc(OC)c(-c2cncc(-c3nnco3)c2)c1 [US20250129027, Example 166] | > 10 | – |
